Experiment [1] relates to Min mice. The experiment can be described thus: Cancer suppression test (intestinal polyp development) in Min mice. The experiment is classed as in vivo. Conditions: male Min mice, 100 ppm in feed, sacrificed at 15 weeks old. The source says:
That is to say, the inventors used, as a test system, familial adenomatous polyposis (FAP) model mice (Apc gene hetero-deficient mice) belonging to a high risk group of large intestinal cancer. These model mice have two characteristics. […] Thus, this mouse can be used as an experimental animal model useful for examining the relationship between a hyperlipidemia condition and large intestinal cancer. In this test, based on the fact that expression of PAI-1 was increased in the polyps of FAP patients and that expression of PAI-1 was induced by triglyceride, the action of suppressing the development of intestinal polyps of a PAI-1-inhibiting compound was evaluated using Min mice that were one type of Apc gene-deficient mice.
5-week-old male Min mice (CLEA Japan, Inc.) were purchased. After giving a basic feed (AIN-76A) to the mice for 1 week, 100 ppm of a test substance was mixed into the feed, and the mixed feed was then given to the mice. On the other hand, in the case of wild-type mice also, the same amount of the test substance was mixed into the feed, and the mixed feed was then given to the wild-type mice. The body weight and the feed intake were measured every week. The mice were sacrificed under anesthesia, when they were 15 weeks old. Then, the weights of main organs (spleen and heart) were measured. Small intestine and large intestine were washed and were then excised in a longitudinal direction, followed by fixing with formalin. The number of intestinal polyps in the small intestine and large intestine were counted and the size thereof were measured under a stereoscopic microscope.

Experiment [2] concerns the target PAI-1 (Homo sapiens, UniProt P05121). The experiment can be described thus: PAI-1 inhibitory activity using synthetic substrate S-2288. Format: biochemical. An excerpt:
PAI-1 inhibitory activity can be measured using a synthetic substrate S-2288 according to the methods described in International Publication WO04/011442 pamphlet, International Publication WO04/10996 pamphlet, JP-A-2004-250401, etc.

The values below come from patent US20090118314A1, “TUMOR SUPPRESSOR” (JAPAN AS REPRESENTED BY DIRECTOR GENERAL OF AGENCY CENTER, priority 2006, published 2009).

For orientation: IC50 means the concentration that inhibits the measured activity by half. Read a low IC50 as greater potency in that assay.

Sequence of PAI-1 (P05121 24-402, species assumed): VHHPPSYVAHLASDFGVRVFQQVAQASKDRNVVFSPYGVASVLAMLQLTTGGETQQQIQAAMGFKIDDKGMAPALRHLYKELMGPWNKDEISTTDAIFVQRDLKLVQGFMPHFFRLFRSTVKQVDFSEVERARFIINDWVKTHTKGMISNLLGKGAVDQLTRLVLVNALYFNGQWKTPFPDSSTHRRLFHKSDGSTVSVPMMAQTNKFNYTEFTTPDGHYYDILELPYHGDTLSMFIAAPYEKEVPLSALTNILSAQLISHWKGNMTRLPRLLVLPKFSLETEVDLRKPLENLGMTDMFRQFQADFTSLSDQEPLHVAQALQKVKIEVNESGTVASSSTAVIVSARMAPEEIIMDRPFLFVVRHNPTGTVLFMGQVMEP

On to `CC(C)(C)c1ccc2oc(-c3ccc4cc(OCCCCCC(C(=O)O)C(=O)O)ccc4c3)nc2c1` [Compound No. 20, [5-[[6-[5-(1,1-dimethylethyl)-2-benzoxazolyl]-2-naphthalenyl]oxy]pentyl]propanedioic acid], for which, in experiment [1], the “development of intestinal polyps in the proximal portion of small intestine” value is recorded as “suppressed particularly strongly”, the “distribution of the polyp size” value is recorded as “a decrease in the size was observed overall”, the “polyps with a diameter size of 1 mm or less” value is listed as “significantly decreased” and the “weight of heart (indicator of anemia caused by bleeding associated with intestinal polyps)” value is “significantly reduced”. The “weight of spleen (indicator of anemia caused by bleeding associated with intestinal polyps)” value in experiment [1] is “significantly reduced”. In addition, in experiment [1] (small and large intestine), the “total number of polyps per mouse, decreased to” value is on record as “approximately 66%”. This compound also gave an IC50 in experiment [2] of 440 nM.

In experiment [2], `CC(C)(C)c1cc(OCc2ccc(F)cc2)nc(-c2ccc3cc(OCCCCCC(C(=O)O)C(=O)O)ccc3c2)n1` [compound 49, [5-[[6-[4-(1,1-dimethylethyl)-6-[(4-fluorophenyl)methoxy]-2-pyrimidinyl]-2-naphthalenyl]oxy]pentyl]propanedioic acid] registered a 50% inhibitory concentration (IC50) of 290 nM.

In the case of `Cc1ccc(-c2nc(-c3ccc4cc(OCCCCCC(C(=O)O)C(=O)O)ccc4c3)oc2-c2ccc(C)cc2)cc1` [compound 7, [5-[[6-[4,5-bis(4-methylphenyl)-2-oxazolyl]-2-naphthalenyl]oxy]pentyl]propanedioic acid], the IC50 in experiment [2] stood at 590 nM.

With `O=C(O)C(CCCCCOc1ccc2cc(-c3nc4ccc(OCc5ccccc5)cc4o3)ccc2c1)C(=O)O` [compound 24, [5-[[6-[6-(phenylmethoxy)-2-benzoxazolyl]-2-naphthalenyl]oxy]pentyl]propanedioic acid], half-maximal inhibition in experiment [2] (IC50) was put at 540 nM.

As to `O=C(O)C(CCCOc1ccc2cc(-c3nc4cc(-c5ccccc5)ccc4o3)ccc2c1)C(=O)O` [compound 13, [3-[[6-(5-phenyl-2-benzoxazolyl)-2-naphthalenyl]oxy]propyl]propanedioic acid], the IC50 in experiment [2] was determined as 540 nM.

The compound `O=C(O)C(CCCCCOc1ccc2cc(-c3nc(-c4ccccc4)c(-c4ccccc4)o3)ccc2c1)C(=O)O` [compound 6, [5-[[6-(4,5-diphenyl-2-oxazolyl)-2-naphthalenyl]oxy]pentyl]propanedioic acid] returned an IC50 in experiment [2] of 940 nM.

Regarding `O=C(O)C(CCCCCOc1ccc2cc(-c3nc(OCc4ccccc4)cc(-c4ccccc4)n3)ccc2c1)C(=O)O` [compound 47, [5-[[6-[4-phenyl-6-(phenylmethoxy)-2-pyrimidinyl]-2-naphthalenyl]oxy]pentyl]propanedioic acid], in experiment [2], the concentration for half-maximal inhibition (IC50) turned out to be 350 nM. This IC50 is about 2.7-fold lower than that of the compound before.

Compound `CC(C)(C)c1cc(OCc2ccccc2Cl)nc(-c2ccc3cc(OCCCCCC(C(=O)O)C(=O)O)ccc3c2)n1` [compound 50, [5-[[6-[4-[(2-chlorophenyl)methoxy]-6-(1,1-dimethylethyl)-2-pyrimidinyl]-2-naphthalenyl]oxy]pentyl]propanedioic acid] returned an IC50 in experiment [2] of 220 nM. Against the preceding compound, the IC50 is about 1.6-fold lower.

Turning to `O=C(O)C(CCCCCOc1ccc2cc(-c3nc4ccc(OCC5CCCCC5)cc4o3)ccc2c1)C(=O)O` [compound 23, [5-[[6-[6-(cyclohexylmethoxy)-2-benzoxazolyl]-2-naphthalenyl]oxy]pentyl]propanedioic acid], in experiment [2], the IC50 worked out at 390 nM.

The compound `CC(C)(C)c1cc(OCC2CCCCC2)nc(-c2ccc3cc(OCCCCCC(C(=O)O)C(=O)O)ccc3c2)n1` [compound 48, [5-[[6-[4-cyclohexylmethoxy-6-(1,1-dimethylethyl)-2-pyrimidinyl]-2-naphthalenyl]oxy]pentyl]propanedioic acid] yielded an IC50 in experiment [2] of 320 nM.

Compound `COc1ccc(-c2cc(OCc3ccccc3F)nc(-c3ccc4cc(OCCCC(C(=O)O)C(=O)O)ccc4c3)n2)cc1` [compound 43, [3-[[6-[4-[(2-fluorophenyl)methoxy]-6-(4-methoxyphenyl)-2-pyrimidinyl]-2-naphthalenyl]oxy]propyl]propanedioic acid] displayed an IC50 in experiment [2] of 860 nM. This IC50 is about 2.7-fold higher than that of the compound before.
